Data published in patent US20200190073A1, “SUBSTITUTED SUCCINIMIDE DERIVATIVES AS PESTICIDES” (BASF SE, priority 2017, published 2020).
Read-outs that look alike come from different tables or passages of the source.

Legend:
Type in all cases: in vivo
[1] = tested on: Green Peach Aphid (Myzus persicae); test: B.2 Green peach aphid, artificial diet, systemic; settings: 72 h, read-out: mortality in comparison with untreated controls
How it was run: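 Adult aphids (5-8 per well) fed through a membrane on artificial diet containing compound formulated in 75% water/25% DMSO, with two replications per concentration. Incubation lasted 3 days at about 23±1° C and 50±5% relative humidity. Mortality and fecundity were then assessed visually.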

[2] = tested on: Green Soldier Stink Bug (Nezara viridula); test: B.11 Green soldier stink bug, sprayed soybean pods; settings: 120 h, read-out: mortality in comparison with untreated controls
How it was run: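 Ten late 3rd-instar N. viridula on soybean pods in Petri dishes were sprayed with compound in 1:1 water:acetone plus 0.01% surfactant. Dishes were held at about 25° C. Percent mortality was scored after 5 days.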

[3] = tested on: Silverleaf Whitefly (Bemisia argentifolii); test: CE.4 Silverleaf whitefly, comparative test; settings: 72 h, read-out: % mortality in comparison to untreated controls
Method: (§1) The tables show % mortality in comparison to untreated controls.
CE.4 Silverleaf Whitefly (Bemisia argentifolii)
The active compounds were formulated in 50:50 acetone:water (vol:vol) and 100 ppm Kinetica™ surfactant.
Selected cotton plants were grown to the cotyledon state (one plant per pot). The cotyledons were dipped into the test solution to provide complete coverage of the foliage and placed in a well-vented area to dry. Each pot with treated seedling was placed in a plastic cup and 10 to 12 whitefly adults (approximately 3-5 day old) were introduced. The insects were collected using an aspirator and a Tygon® tubing connected to a barrier pipette tip. The tip, containing the collected insects, was then gently inserted into the soil containing the treated plant, allowing insects to crawl out of the tip to reach the foliage for feeding. The cups were covered with a reusable screened lid. Test plants were maintained in the holding room at about 25° C. and about 20-40% relative humidity for 3 days avoiding direct exposure to the fluorescent light (24 hour photoperiod) to prevent trapping of heat inside the cup. Mortality was assessed 3 days after treatment of the plants.

[4] = tested on: Neotropical Brown Stink Bug (Euschistus heros); test: B.12 Neotropical brown stink bug, dipped pole bean; settings: 120 h, read-out: mortality in comparison with untreated controls
How it was run: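 Contact assay: pole bean sections dipped in compound in 50% acetone/water, air-dried, then exposed to 5 adult Euschistus heros per beaker, eight replicates. Held 5 days at 23±1 °C, 50±5% RH before visual mortality scoring.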

[5] = tested on: Vetch Aphid (Megoura viciae); test: B.3 Vetch aphid, broad bean leaf disks; settings: foliar, 120 h, read-out: mortality in comparison with untreated controls
How it was run: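 Broad bean leaf disks sprayed with compounds in 25% DMSO/water at various concentrations, two replicates, then air-dried and infested with 5-8 adult Megoura viciae (contact/systemic exposure). After 5 days at about 23±1 °C and 50±5% RH, mortality and fecundity scored visually.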

[6] = tested on: Cowpea Aphid (Aphis Craccivora); test: CE.1 Cowpea aphid, comparative test; settings: read-out: % mortality in comparison to untreated controls
Method: as §1
CE.1 Cowpea Aphid (Aphis Craccivora)
Potted cowpea plants colonized with approximately 100-150 aphids of various stages were sprayed after the pest population has been recorded. Population reduction was assessed after 24, 72, and 120 hours.

[7] = tested on: Rice Brown Plant Hopper (Nilaparvata lugens); test: CE.2 Rice brown plant hopper, comparative test; settings: 10 ppm, after 72 hours, read-out: % mortality in comparison to untreated controls
Method: as §1
CE.2 Rice Brown Plant Hopper (Nilaparvata lugens)
Rice seedlings were cleaned and washed 24 hours before spraying. The active compounds were formulated in 50:50 acetone:water (vol:vol) and 0.1% vol/vol surfactant (EL 620) was added. Potted rice seedlings were sprayed with 5 ml test solution, air dried, placed in cages and inoculated with 10 adults. Treated rice plants were kept at about 28-29° C. and relative humidity of about 50-60%. Percent mortality was recorded after 72 hours.

[8] = tested on: Orchid Thrips (Dichromothrips Corbetti); test: CE.3 Orchid thrips, comparative test; settings: 96 h, 10 ppm, after 4 days, read-out: % mortality in comparison to untreated controls
How it was run: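 Orchid flower petals were dipped in 300 ppm compound in 1:1 acetone:water plus 0.01% v/v surfactant and dried, then caged with 10-15 lab-colony adults. Live thrips were counted after 4 days, and % mortality was derived from pre-treatment numbers relative to untreated controls.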

Compound | mortality at 2500 ppm [1] | mortality at 300 ppm [2] | mortality at 10 ppm [3] | mortality at 500 ppm [4] | mortality at 2500 ppm [5] | mortality at 10 ppm [6] | mortality at 10 ppm ([6]; 10 ppm, sprayed cowpea plants) | mortality at 2500 ppm ([1]; 2500 ppm, adult aphids on treated diet, 3 days) | mortality at 300 ppm ([2]; 300 ppm, late 3rd instar, after 5 days) | mortality at 10 ppm [7] | mortality at 10 ppm [8] | mortality at 2500 ppm ([5]; 2500 ppm, sprayed leaf disks, 5 days)
CN1C(=O)CC(NC(=O)c2ccc(C3=NOC(c4cc(Cl)c(F)c(Cl)c4)(C(F)(F)F)C3)cc2Cl)C1=O (stereo not drawn) [Compound I-1-2, 2-Chloro-4-[5-(3,5-dichloro-4-fluoro-phenyl)-5-(trifluoromethyl)-4H-isoxazol-3-yl]-N-(1-methyl-2,5-dioxo-pyrrolidin-3-yl)benzamide] | > 75% | > 75% | 88% | > 75% | > 75% |  |  |  |  |  |  | 
CCN1C(=O)CC(NC(=O)c2ccc(C3=NOC(c4cc(Cl)c(F)c(Cl)c4)(C(F)(F)F)C3)cc2Cl)C1=O (stereo not drawn) [Compound I-1-3] | > 75% | > 75% | 75% |  | > 75% |  |  |  |  |  |  | 
CN1C(=O)CC(NC(=O)c2ccc(C3=NOC(c4cc(Cl)c(F)c(Cl)c4)(C(F)(F)F)C3)c3c2CCC3)C1=O (stereo not drawn) [Compound I-1-10] | > 75% | > 75% |  | > 75% | > 75% |  |  |  |  |  |  | 
CN1C(=O)C[C@@H](NC(=O)c2ccc(C3=NOC(c4cc(Cl)c(F)c(Cl)c4)(C(F)(F)F)C3)cc2Cl)C1=O (stereo partly drawn) [Compound I-1-13] | > 75% | > 75% |  | > 75% | > 75% | 90% |  |  |  |  |  | 
CCN1C(=O)C[C@@H](NC(=O)c2ccc(C3=NOC(c4ccc(F)c(Cl)c4)(C(F)(F)F)C3)cc2Cl)C1=O (stereo partly drawn) [Compound I-1-53] |  |  |  |  |  |  | 100% | > 75% | > 75% | 75% | 100% | > 75%
